Type in all cases: physicochemical
A short description of data set [1]: Minocycline HCl compatibility tests with excipients (colour change, HPLC assay). The following applies: for Compatibility with Minocycline HCL: Summary, compatibility tested after the storage for up to 3 weeks. On the procedure: About 0.5 g foam or pre-foam formulation is dissolved with diluent (65% phosphate buffer: 35% Acetonitrile (ACN)) in a 25 mL volumetric flask. The sample is shaken […] on an inverted shaker stand for 10 min at room temperature. The resulting suspension is centrifuged for 5 minutes at 4000 rpm. The supernatant is separated by vacuum pump and filtered thereafter through a 0.45 μm PTFE+GL filter. The first few drops of the filtrate are discarded. The resultant clear solution layer is analyzed by HPLC using columnRP-8. The content of MCH is calculated against an MCH standard 0.4 mg/mL (concentration). The content of 4-epiminocycline is calculated against MCH standard 0.02 mg/mL (concentration).
Color is tested by visual observation and in particular by comparison to “Pantone® formula guide solid uncoated” colors. […] Minocycline changes color to orange/greenish with oxidation or complexation. These oxidized colors are not desirable. Colors such as 609U/608U/610U are indicative of degradation by the tetracycline antibiotic.
For convenience the excipients were divided into four different groups (I-IV).
Different compositions of hydrophilic and hydrophobic solvents containing minocycline HCl were prepared by weighing the antibiotic in a glass vial and shaking overnight with each solvent investigated (Group I and II).
Mixtures of Minocycline HCl with solid excipients like titanium dioxide, stearyl alcohol, myristyl alcohol etc were prepared by suspending Minocycline HCl in oil with stirring and then adding the solid ingredient as a powder with stirring at room temperature (Group III an IV).
Oxidation of minocycline after the storage at various temperatures was detected by color change. Assay for content of the active pharmaceutical ingredient (API) and degradation product (4-epiminocycline) was determined in some samples.
A series of experiments were performed to evaluate which mixture of components/ingredients were compatible or incompatible with minocycline. Each component or combinations of components were mixed with either 1.1% or 2.2% Minocycline HCl. The glass vials containing the formulations were wrapped in aluminum—and were subjected to a range of temperatures 25° C.; 30° C.; 40° C.; 50 C; for between one week to about 3 weeks. The best results are shown as “compatible no oxidation”.

Data set [2] is described as follows: Doxycycline Hyclate compatibility test with excipients. The procedure: Different compositions of hydrophilic and hydrophobic solvents containing Doxycycline Hyclate (Set I and Set II) and Doxycycline Monohydrate (Set III) were prepared by weighing the antibiotic in a glass vial and shaking overnight with each solvent investigated.
Group II included Doxycycline Hyclate mixed with various vehicles with addition of antioxidants like alpha tocopherol, butylated hydroxytolyene (BHT), ascorbic acid.

A short description of data set [3]: Doxycycline Monohydrate compatibility test with excipients. The following applies: for Compatibility with Doxycycline Monohydrate: Summary, compatibility tested after the storage for up to 3 weeks; for Visual inspection after the storage at 25° C.: stored at 25° C. for two weeks; for Visual inspection after the storage at 40° C.: stored at 40° C. for two weeks; for Visual inspection after the storage at 50° C.: stored at 50° C. for two weeks; for Compatibility with Doxycycline Monohydrate (text): as summarised in text, 40° and 50° C. for two weeks where stated. On the procedure: Different compositions of hydrophilic and hydrophobic solvents containing Doxycycline Hyclate (Set I and Set II) and Doxycycline Monohydrate (Set III) were prepared by weighing the antibiotic in a glass vial and shaking overnight with each solvent investigated. Mixtures of Doxycycline salts 1.04% w/w with solid excipients were prepared in a similar way as for Minocycline HCl.
A similar compatibility test was performed on another form of Doxycycline-Doxycycline Monohydrate. Table 17b and Table 18.

Setting [4] is: Summary, compatibility tested after the storage for up to 3 weeks.
Where [5] appears, read: Group II, mixture with 1.1% of Minocycline HCl, 10 days at 40° C.
Setting [6] is: Group II, mixture with 1.1% of Minocycline HCl, T-0.
The mark [7] stands for this setting: 40° C. and 50° C. for two weeks where stated.
The mark [8] stands for this setting: Mixtures of 1.04% w/w of Doxycycline Monohydrate with the ingredient.

Entries after “also recorded” stand apart in the source; their conditions may differ.

As to `CC(C)OC(=O)CCCCC(=O)OC(C)C` [Diisopropyl adipate], the “Compatibility with Minocycline HCL” value in data set [1] is listed as “Yes”. Also, the “Compatibility with Doxycycline Hyclate” value in data set [2] (setting [4]) is recorded as “Yes”. In addition, the “Compatibility with Doxycycline Monohydrate” value in data set [3] is “No”.
In the case of `CCCCCCCC/C=C\CCCCCCCCO` [Oleyl alcohol], in data set [1], the “Compatibility with Minocycline HCL” value was “Yes”. In data set [2] (setting [4]), the “Compatibility with Doxycycline Hyclate” value is “Yes”.
`C[Si]1(C)O[Si](C)(C)O[Si](C)(C)O[Si](C)(C)O[Si](C)(C)O1` [Cyclomethicone 5 NF]: the “Compatibility with Minocycline HCL” value in data set [1] was “Yes”. In data set [2] (setting [4]), the “Compatibility with Doxycycline Hyclate” value is “Yes”. Also, the “Compatibility with Doxycycline Monohydrate” value in data set [3] is “Yes”.
As to `CCO` [Ethanol 95%], in data set [1], the “Compatibility with Minocycline HCl” value was “changed their colour from yellow to orange” and the “Compatibility with Minocycline HCL” value is given as “No”. Moreover, in data set [1] (setting [5]), the “4-epiminocycline Assay (% w/w), 10 days at 40° C.” value was found to be 0.39 % w/w and the “Minocycline Assay (% w/w), 10 days at 40° C.” value is reported as 0.52 % w/w. Further, in data set [1] (setting [6]), the “4-epiminocycline Assay (% w/w), T-0” value is given as 0.021 % w/w and the “Minocycline Assay (% w/w), T-0” value is 0.97 % w/w. Besides, the “Compatibility with Doxycycline Hyclate” value in data set [2] (setting [7]) was “stable”. Besides, the “Compatibility with Doxycycline Hyclate” value in data set [2] (setting [4]) is on record as “Yes”. Besides, in data set [3] (setting [8]), the “Visual inspection after the storage at 25° C.” value (shortened to “Visual inspection … at 25° C.”) is “Brown solution”, the “Visual inspection after the storage at 40° C.” value was “Brown solution” and the “Visual inspection after the storage at 50° C.” value (shortened to “Visual inspection … at 50° C.”) is on record as “Black solution”. In data set [3], the “Compatibility with Doxycycline Monohydrate” value was “No” and the “Compatibility with Doxycycline Monohydrate (text)” value (shortened to “Compatibility … (text)”) is “changed their colour from yellow to orange”. Moreover, the “Compatibility … (text)” value in data set [3] (listed as ethanol 95%) is given as “oxidized”.
Turning to `CCCCCCCCCCC(CO)CCCCCCCC` (stereo not drawn) [Octyldodecanol], in data set [1], the “Compatibility with Minocycline HCl” value is reported as “full compatibility; also recorded: compatible” and the “Compatibility with Minocycline HCL” value is on record as “Yes”. In data set [2] (setting [7]), the “Compatibility with Doxycycline Hyclate” value is “incompatibility”. Moreover, the “Compatibility with Doxycycline Hyclate” value in data set [2] (setting [4]) was “No”. In data set [3], the “Compatibility with Doxycycline Monohydrate” value is “No” and the “Compatibility … (text)” value is “incompatibility”.
`CCCCCCCCCCCCCCO` [Myristyl alcohol]: the “Compatibility with Minocycline HCL” value in data set [1] was “Yes”. Besides, the “Compatibility with Doxycycline Hyclate” value in data set [2] (setting [4]) is on record as “Yes”.
On to Sorbitan Monostearate, for which the “Compatibility with Minocycline HCL” value in data set [1] was “Yes”. Also, the “Compatibility with Doxycycline Hyclate” value in data set [2] (setting [4]) is “Yes”.
Regarding `OCCCCO` [Butylene glycol], in data set [1], the “Compatibility with Minocycline HCL” value is recorded as “No”. The “Compatibility with Doxycycline Hyclate” value in data set [2] (setting [4]) is on record as “No”. For the same compound, in data set [3] (setting [8]), the “Visual inspection … at 25° C.” value is “Orange solution” and the “Visual inspection … at 50° C.” value is on record as “black solution”. Also, in data set [3], the “Compatibility with Doxycycline Monohydrate” value was “No”.
As for Sorbitan Monolaurate, the “Compatibility with Minocycline HCL” value in data set [1] is “No”. Moreover, the “Visual inspection … at 25° C.” value in data set [2] (Mixtures of 1.04% w/w of Doxycycline Hyclate with the ingredient, stored at 25° C. for two weeks) is “Brown solution”; in data set [3] (setting [8]), “orange solution”. Further, the “Visual inspection after the storage at 40° C.” value is “Brown solution” in data set [2] (Mixtures of 1.04% w/w of Doxycycline Hyclate with the ingredient, stored at 40° C. for two weeks) and “Brown solution” in data set [3] (setting [8]). Further, the “Visual inspection … at 50° C.” value in data set [2] (Mixtures of 1.04% w/w of Doxycycline Hyclate with the ingredient, stored at 50° C. for two weeks) is listed as “Black solution”; in data set [3] (setting [8]), “brown solution”. In addition, in data set [2] (setting [4]), the “Compatibility with Doxycycline Hyclate” value is given as “No”. The “Visual inspection at T-0” value in data set [3] (Mixtures of 1.04% w/w of Doxycycline Monohydrate with the ingredient, T-0) is on record as “Brown mixture”. Also, the “Compatibility with Doxycycline Monohydrate” value in data set [3] is “No”.
In the case of `CCCCCCCCCCCCCCCCCCO` [Stearyl alcohol], the “Compatibility with Minocycline HCL” value in data set [1] is recorded as “Yes”. Moreover, the “Compatibility with Doxycycline Hyclate” value in data set [2] (setting [4]) is listed as “Yes”.
For `CC(C)CCCCCCCCCCCCCCC(=O)O` [Isostearic Acid], in data set [1], the “Compatibility with Minocycline HCL” value is “No”. Further, the “Compatibility with Doxycycline Hyclate” value in data set [2] (setting [4]) is recorded as “Yes”.

The values are drawn from US8343945B2, “Carriers, formulations, methods for formulating unstable active agents for external application and uses thereof” (Foamix Ltd., priority 2007, dated 2013).
